From US20240174618A1, “SUBSTITUTED (2-HETEROARYLOXYPHENYL)SULFONATES, SALTS THEREOF AND THEIR USE AS HERBICIDAL AGENTS” (Bayer Aktiengesellschaft, priority 2021, published 2024)

What was measured:
Assay type in all cases: in vivo
[1] = system: Alopecurus myosuroides (ALOMY); test: A. Herbicidal pre-emergence efficacy, ALOMY; conditions: scored visually after about 3 weeks vs untreated controls
In short: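 Applied before emergence onto covering soil at rates of 1280 g/ha or less, using 600 L/ha spray water with 0.5% additive. Scoring: visual % efficacy after ~3 weeks, greenhouse.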

[2] = system: Abutilon theophrasti (ABUTH); test: C. Herbicidal pre-emergence efficacy, ABUTH; conditions: scored after about 3 weeks
In short: (§1)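 Pre-emergence test: formulated compounds sprayed as aqueous suspension or emulsion with 0.5% additive at 600 l/ha onto soil covering sown seeds, at rates corresponding to 320 g/ha or less. After about 3 weeks in greenhouse, efficacy scored visually as percent versus untreated controls (100% = plants dead).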

[3] = system: Echinochloa crus-galli (ECHCG); test: B. Herbicidal post-emergence efficacy, ECHCG; conditions: rated visually after about 3 weeks
In short: (§2)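 Readout: visual % kill vs untreated, ~3 wk post-spray. Plants in sandy loam pots, treated at one-leaf stage; spray = WP/EC in water + 0.5% additive, 600 L/ha, dose ≤1280 g/ha.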

[4] = system: Viola tricolor (VIOTR); test: C. Herbicidal pre-emergence efficacy, VIOTR
In short: as §1

[5] = system: Veronica persica (VERPE); test: B. Herbicidal post-emergence efficacy, VERPE
In short: as §2

[6] = system: Amaranthus retroflexus (AMARE); test: B. Herbicidal post-emergence efficacy, AMARE
In short: as §2

[7] = system: Stellaria media (STEME); test: B. Herbicidal post-emergence efficacy, STEME
In short: as §2

SMILES	Pre-emergence efficacy against ALOMY ([1]; 1280 g/ha)	Pre-emergence efficacy against ABUTH ([2]; 80 g/ha)	Pre-emergence efficacy against ABUTH ([2]; 320 g/ha)	Post-emergence efficacy against ECHCG in % ([3]; 320 g/ha)	Post-emergence efficacy against ECHCG in % ([3]; 1280 g/ha)	Pre-emergence efficacy against VIOTR in % ([4]; application rate 80 g/ha)	Pre-emergence efficacy against VIOTR in % ([4]; application rate 320 g/ha)	Post-emergence efficacy against VERPE ([5]; 320 g/ha)	Post-emergence efficacy against VERPE ([5]; 1280 g/ha)	Post-emergence efficacy against AMARE ([6]; 80 g/ha)	Post-emergence efficacy against AMARE ([6]; 320 g/ha)	Post-emergence efficacy against AMARE ([6]; 1280 g/ha)	Post-emergence efficacy against STEME ([7]; 320 g/ha)	Post-emergence efficacy against STEME ([7]; 1280 g/ha)	Pre-emergence efficacy against ALOMY ([1]; 320 g/ha)	Post-emergence efficacy against VERPE ([5]; 80 g/ha)	Post-emergence efficacy against STEME ([7]; 80 g/ha)	Post-emergence efficacy against ECHCG in % ([3]; 80 g/ha)
CCCCS(=O)(=O)Oc1ccccc1Oc1ncc(Cl)cn1 [Example I-6]	90%	90%	100%	90%	90%	80%	90%	90%	90%	90%	100%	100%	90%	90%				
O=S(=O)(CCC(F)(F)F)Oc1ccccc1Oc1ncc(Cl)cn1 [Example I-8]	90%	100%	100%	90%	100%	90%	90%		90%	90%	100%	100%	90%	90%				
O=S(=O)(CCCCl)Oc1c(F)cccc1Oc1ncc(Cl)cn1 [Example I-14]	100%	90%	100%	100%	100%	100%	100%	100%	100%	100%	100%	100%	100%	100%	90%	100%	100%	
O=S(=O)(CC1CC1)Oc1ccccc1Oc1ncc(Cl)cn1 [Example I-23]	90%	100%	100%	90%	90%	100%	100%	100%	100%	100%	100%	100%	100%	100%		90%	90%	
O=S(=O)(CCC(F)(F)F)Oc1c(Cl)cccc1Oc1ncc(Br)cn1 [Example I-32]	90%	90%	100%	90%	100%	100%	100%	100%	100%	100%	100%	100%	100%	100%		100%	100%	90%
O=S(=O)(CCC(F)(F)F)Oc1c(F)cccc1Oc1ncc(Cl)cn1 [Example I-48]	90%	100%	100%	90%	90%	100%	100%	90%	90%	90%	90%	90%	90%	90%	90%		90%	
O=S(=O)(CCCC(F)(F)F)Oc1c(F)cccc1Oc1ncc(Cl)cn1 [Example I-49]	90%	100%	100%	90%	90%	100%	100%		90%	90%	90%	100%	90%	90%			90%	90%
O=S(=O)(CC1CC(F)(F)C1)Oc1c(F)cccc1Oc1ncc(Cl)cn1 [Example I-53]	100%	100%	100%	90%	90%	100%	100%	90%	90%	90%	90%	90%	90%	90%		90%	90%	90%
O=S(=O)(CCCC(F)F)Oc1c(F)cccc1Oc1ncc(Cl)cn1 [Example I-56]	100%	100%	100%	90%	90%	100%	100%	90%	90%	90%	90%	90%	90%	90%	90%	90%	90%	
O=S(=O)(CCCC(F)(F)C(F)(F)F)Oc1c(F)cccc1Oc1ncc(Cl)cn1 [Example I-68]	90%	100%	100%	90%	100%	100%	100%	100%	100%	100%	100%	100%	100%	100%		100%	90%	
Cc1cccc(Oc2ncc(Cl)cn2)c1OS(=O)(=O)CC1CC(F)(F)C1 [Example I-74]	90%		90%	100%	100%	100%	100%	100%	100%	100%	100%	100%	100%	100%		100%	100%	
